Reference: PubChem BioAssay AID1963438 (Molecular Pharmacology Branch, DTP, NCI, 2024)

System: NCI-H510 multicellular tumor spheroid growth, % test/control
Assay: Anticancer human tumor NCI-H510 cell line growth inhibition [Asc];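 also: spheroids exposed to agents for 7 days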;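 as to viability, T/C: 100% = DMSO vehicle control wells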
Conditions: for IC50: curve of first compound; for viability, T/C: stronger effect = lower value
Description: Multicellular complex tumor spheroid response to apoptosis pathway targeting inhibitors Alrizomadlin, Pelcitoclax, and Dasminapant in combination with a variety of drugs and investigational agents in selected tumor cell lines
The MDM2 inhibitor alrizomadlin, the Bcl-2/Bcl-xL inhibitor pelcitoclax, and the IAPs inhibitor dasminapant were evaluated both individually and in combination with standard of care and investigational anticancer small molecules within a complex spheroid model of solid tumors. . Complex spheroids include a stromal component modeled by human endothelial cells (HUVEC) and fibroblasts modeled by human mesenchymal stem cells (MSCs). The concentration ranges selected for each drug and investigational agent were based upon clinically achievable concentrations if the clinical Cmax of the agent was known.
Compounds. The drugs and investigational agents: alrizomadlin (APG-115; NSC831270), pelcitoclax (APG-1252; NSC835773), dasminapant (APG-1387;NSC834197), TAK-243 (NSC785004), copanlisib (NSC809693), olaparib (NSC753686), talazoparib (NSC767125), cobimetinib (NSC 768068), eltanexor (KPT-8602, NSC 794443), abemaciclib (NSC 768073), sotorasib (NSC818433), adagrasib (NSC 831453), MRTX-1133 (NSC 836407), Iadademestat (ORY1001, NSC 806812), and RMC-4630 (NSC839698), were obtained from the NCI Developmental Therapeutics Program Chemical Repository. The FDA-approved anticancer drug set is available from the Developmental Therapeutics Program at https://dtp.cancer.gov/organization/dscb/obtaining/available plates.htm. […] The stock solutions were prepared in dimethyl sulfoxide (DMSO, Sigma-Aldrich, St. Louis, MO, cat. D2650) at 800-fold the tested concentration and stored at -70 degrees C prior to their use. All drugs and investigational agents were tested over a range starting from a high concentration at or near the clinical Cmax and decreasing in half-log increments. If the clinical Cmax for an agent had not been determined, the highest concentration tested was 10 microM.
The patient-derived cancer (PDC) cell lines include five colon adenocarcinomas: 186277-243-T-J2-PDC, 616215-338-R-J1-PDC, 439559-082-T-J2-PDC, 463943-066-T-J2-PDC, and 519858-162-T-J1-PDC; three pancreatic carcinomas: 323965-272-R-J2-PDC, 521955-158-R6-J3-PDC, and 521955-158-R2-J5-PDC; two uterine sarcomas: 327498-152-R-J2-PDC and 993429-296-R-J1-PDC; two rhabdomyosarcomas: 755483-174-R-J1-PDC and 772245-204-R-J1-PDC; two soft tissue sarcomas: 126254-015-R-J1-PDC and 494315-158-R-J1-PDC; two malignant fibrous histiocytomas: 317291-083-R-J1-PDC and 596521-263-R-J1-PDC; two breast carcinomas: 171881-019-R-J1-PDC and 885512-296-R-J2-PDC; and one ovarian carcinoma: 6556581-035-R-J-PDC were obtained from the NCI PDMR, (https://pdmr.cancer.gov). The established cell lines HSSY-2 synovial sarcoma (RRID:CVCL 8719), SYO-1 synovial sarcoma (RRID:CVCL_7146), MPNST malignant peripheral neural sheath tumor were obtained from the Sloan Kettering Institute. The following established cell lines were purchased from the American Type Culture Collection (ATCC, Manassas, VA), Sor the received from the NCI repository:, PANC-1 pancreatic carcinoma (CRL-1469, RRID:CVCL_0480), OVCAR-5 ovarian carcinoma (RRID:CVCL_1628), OVCAR-8 ovarian carcinoma (RRID:CVCL_1629), , MCF-7 breast carcinoma (CRL-12584, RRID:CVCL_0031), MDA-MB-231 breast carcinoma (CRL-12532, RRID:CVCL_0062), NCI-H1876 small cell lung carcinoma (CRL-5902, RRID:CVCL_1503), NCI-H510A small cell lung carcinoma (HTB-184, RRID:CVCL_1565), NCI-H1417 (CRL-5869, RRID:CVCL_1469), and NCI-H196 small cell lung carcinoma (CRL-5823, RRID:CVCL_1509). Dr. Peter Houghton (Greehey Children's Cancer Research Institute, University of Texas Health Science Center, San Antonio, TX) provided Rh-18 rhabdomyosarcoma (RRID:CVCL_1659). Pooled donor human umbilical vein endothelial cells (HUVEC, Lonza, cat. CC-2519) and human mesenchymal stem cells (hMSC, Lonza, cat. PT-2501) were purchased from Lonza (Walkersville, MD).
Cell Culture. […]

`NC(=O)C(=Cn1cnc(-c2cc(C(F)(F)F)cc(C(F)(F)F)c2)n1)c1cncnc1` + CCN1C(C(=O)NC23CCC(C(=O)O)(CC2)CC3)C(c2cccc(Cl)c2F)C2(C(=O)Nc3cc(Cl)ccc32)C12CCCCC2 was tested, and the IC50 (second compound 0.03 µM) was 165 nM, the IC50 (second compound 0.0949 µM) was 183 nM and the IC50 (second compound 0.3 µM) was 138 nM. The IC50 (second compound 0.949 µM) was 180 nM, the IC50 (second compound 3 µM) was 54.3 nM and the viability, T/C (second compound 0.03 µM, first compound 0.000949 µM) was 113%. For the same molecule, the viability, T/C (second compound 0.03 µM, first compound 0.003 µM) was 89.3%, the viability, T/C (second compound 0.03 µM, first compound 0.00949 µM) was 84.8% and the viability, T/C (second compound 0.03 µM, first compound 0.03 µM) was 106%. The viability, T/C (second compound 0.03 µM, first compound 0.0949 µM) was 56.9%, the viability, T/C (second compound 0.03 µM, first compound 0.3 µM) was 42.4% and the viability, T/C (second compound 0.0949 µM, first compound 0.000949 µM) was 88.4%. It also gave a viability, T/C (second compound 0.0949 µM, first compound 0.003 µM) of 121%, a viability, T/C (second compound 0.0949 µM, first compound 0.00949 µM) of 89.2% and a viability, T/C (second compound 0.0949 µM, first compound 0.03 µM) of 95.1%. The viability, T/C (second compound 0.0949 µM, first compound 0.0949 µM) was 65%, the viability, T/C (second compound 0.0949 µM, first compound 0.3 µM) was 38.6% and the viability, T/C (second compound 0.3 µM, first compound 0.000949 µM) was 80.7%. It also gave a viability, T/C (second compound 0.3 µM, first compound 0.003 µM) of 94.9%, a viability, T/C (second compound 0.3 µM, first compound 0.00949 µM) of 93.9% and a viability, T/C (second compound 0.3 µM, first compound 0.03 µM) of 87.3%. The viability, T/C (second compound 0.3 µM, first compound 0.0949 µM) was 58.4%, the viability, T/C (second compound 0.3 µM, first compound 0.3 µM) was 32.4% and the viability, T/C (second compound 0.949 µM, first compound 0.000949 µM) was 106%. For the same molecule, the viability, T/C (second compound 0.949 µM, first compound 0.003 µM) was 87.1%, the viability, T/C (second compound 0.949 µM, first compound 0.00949 µM) was 99.3% and the viability, T/C (second compound 0.949 µM, first compound 0.03 µM) was 79.9%. For the same molecule, the viability, T/C (second compound 0.949 µM, first compound 0.0949 µM) was 93.5%, the viability, T/C (second compound 0.949 µM, first compound 0.3 µM) was 15.3% and the viability, T/C (second compound 3 µM, first compound 0.000949 µM) was 90.1%. For the same molecule, the viability, T/C (second compound 3 µM, first compound 0.003 µM) was 106%, the viability, T/C (second compound 3 µM, first compound 0.00949 µM) was 108% and the viability, T/C (second compound 3 µM, first compound 0.03 µM) was 84%. The viability, T/C (second compound 3 µM, first compound 0.0949 µM) was 18.3% and the viability, T/C (second compound 3 µM, first compound 0.3 µM) was 14.9%.

For `C=C(F)C(=O)N1CCN(c2nc(OCC3CCCN3C)nc3c2CCN(c2cccc4cccc(Cl)c24)C3)CC1CC#N` (stereo not given) + CCN1C(C(=O)NC23CCC(C(=O)O)(CC2)CC3)C(c2cccc(Cl)c2F)C2(C(=O)Nc3cc(Cl)ccc32)C12CCCCC2, the IC50 (second compound 0.03 µM) was 1170 nM, the IC50 (second compound 0.0949 µM) was 1100 nM and the IC50 (second compound 0.3 µM) was 1280 nM. For the same molecule, the IC50 (second compound 0.949 µM) was 717 nM, the IC50 (second compound 3 µM) was 1180 nM and the viability, T/C (second compound 0.03 µM, first compound 0.0316 µM) was 93.8%. It also gave a viability, T/C (second compound 0.03 µM, first compound 0.1 µM) of 103%, a viability, T/C (second compound 0.03 µM, first compound 0.316 µM) of 88.3% and a viability, T/C (second compound 0.03 µM, first compound 1 µM) of 58.2%. For the same molecule, the viability, T/C (second compound 0.03 µM, first compound 3.16 µM) was 1.61%, the viability, T/C (second compound 0.03 µM, first compound 10 µM) was 0.12% and the viability, T/C (second compound 0.0949 µM, first compound 0.0316 µM) was 78.5%. It also gave a viability, T/C (second compound 0.0949 µM, first compound 0.1 µM) of 89%, a viability, T/C (second compound 0.0949 µM, first compound 0.316 µM) of 100% and a viability, T/C (second compound 0.0949 µM, first compound 1 µM) of 54.6%. For the same molecule, the viability, T/C (second compound 0.0949 µM, first compound 3.16 µM) was 3.81%, the viability, T/C (second compound 0.0949 µM, first compound 10 µM) was 0.11% and the viability, T/C (second compound 0.3 µM, first compound 0.0316 µM) was 106%. The viability, T/C (second compound 0.3 µM, first compound 0.1 µM) was 88%, the viability, T/C (second compound 0.3 µM, first compound 0.316 µM) was 109% and the viability, T/C (second compound 0.3 µM, first compound 1 µM) was 62.5%. For the same molecule, the viability, T/C (second compound 0.3 µM, first compound 3.16 µM) was 7.29%, the viability, T/C (second compound 0.3 µM, first compound 10 µM) was 0.11% and the viability, T/C (second compound 0.949 µM, first compound 0.0316 µM) was 95.3%. It also gave a viability, T/C (second compound 0.949 µM, first compound 0.1 µM) of 91.4%, a viability, T/C (second compound 0.949 µM, first compound 0.316 µM) of 88.5% and a viability, T/C (second compound 0.949 µM, first compound 1 µM) of 34.3%. The viability, T/C (second compound 0.949 µM, first compound 3.16 µM) was 4.93%, the viability, T/C (second compound 0.949 µM, first compound 10 µM) was 0.1% and the viability, T/C (second compound 3 µM, first compound 0.0316 µM) was 87.5%. It also gave a viability, T/C (second compound 3 µM, first compound 0.1 µM) of 121%, a viability, T/C (second compound 3 µM, first compound 0.316 µM) of 95% and a viability, T/C (second compound 3 µM, first compound 1 µM) of 52.5%. For the same molecule, the viability, T/C (second compound 3 µM, first compound 3.16 µM) was 20.7% and the viability, T/C (second compound 3 µM, first compound 10 µM) was 0.18%.
